The values below come from patent US11597739B2, “Enhancing CD8+ T cells for adoptive T cell therapy by inhibiting PTPN1 (PTP1B) and PTPN2 (TC-PTP)” (The Royal Institution for the Advancement of …, priority 2017, dated 2023).

The data set relates to OVA expressing EG.7 lymphoma target cells. In words: Calcein-release cytotoxicity assay of OT-1 CTLs. In kind it is cell-based, mouse. The following applies: OT-1 CD8 cells activated with inhibitor at 50 μM; 5 hours; every effector to target ratio; versus untreated, K882 or K885. As to the method: 9) Cytotoxicity Experiments
3 days before the experiment thaw a new vial of EG.7 cells. After 24 h in culture, the cells are resuspended at 5×10^4 and 100 U/ml of IFN-γ is added. The day of the experiment, the EG.7 cells are harvested, washed once with HBSS. The EG.7 cells are resuspended at 10^6/ml in HBSS and 10 μM Calcein-AM added. The cells are incubated at 37° C. for 1 hr in the dark, washed twice with complete RPMI and counted. They are then resuspend at 3×10^5/ml.
The following wells from a 0.75×10^6/ml suspension of the CD8 (Effector) cells to have different effector to target ratios are prepared in duplicate. Before plating the effector cells, RPMI complete is added, 50 μl to the 5:1 ratio wells and 90 μl to the 1:1 ratio wells. • 75×10^3 (100 μl) 25:1 ratio. • Dilute the suspension 1:2.5 volumes: • 30×10^3 (100 μl) 10:1 ratio. • 15×10^3 (50 μl) 5:1 ratio. • 3×10^3 (10 μl) 1:1 ratio. • Prepare at least 2 wells with 100 μl of RPMI complete.
100 μl of EG.7 (Target) cells is added and spin at 400×g for 2 minutes, RT. […]
For Controls: Background fluorescence (BF): Harvest 100 μl supernatant from control wells. Absolut fluorescence (AF): Add 100 μl of methanol to the control wells harvested for background. […]
Calculate the specific cell lysis as follows: Specific cell lysis=((Sample−BF)/(AF−BF))×100 10) Flow Cytometry 1. […] Record cell quantity transfers per tube; • b. […]

Consider `CCOC(=O)c1cc2cc(C(F)(F)P(=O)(O)O)c(Br)cc2s1` [Ex. 1, ((6-BROMO-2-(ETHOXYCARBONYL)BENZO[B]THIOPHEN-5-YL)DIFLUOROMETHYL)PHOSPHONATE], for which the “specific cytotoxicity (lysis of EG.7 cells)” value is reported as “lysed EG.7 cells with greater efficiency”.
